Source: ChEMBL document CHEMBL1129150, “Novel antifungal 2-aryl-1-(1H-1,2,4-triazol-1-yl)butan-2-ol derivatives with high activity against Aspergillus fumigatus” (1996)
Values after ≈ are worked out from the molar mass of the structure shown. Values joined by “and” are separate entries in the source; they are usually repeats but may differ in a detail not shown here. Equal entries are not always repeated.

Tests used:
Type in all cases: functional
[1] = tested on: Aspergillus fumigatus; assay: In vitro for the antifungal activity against Aspergillus fumigatus.
[2] = tested on: Aspergillus fumigatus; assay: In vitro antifungal activity against Aspergillus fumigatus after 24 hr. incubation
[3] = tested on: Mus musculus; assay: Number of mice cured after 10 days against Aspergillus fumigatus on intravenous infection to mice
[4] = tested on: Mus musculus; assay: Number of mice surviving due to reduction in kidney fungal burden after 10 days against Aspergillus fumigatus on intravenous infection to mice
[5] = tested on: Pichia kudriavzevii; assay: In vitro antifungal activity against Candida krusei
[6] = tested on: Candida albicans; assay: In vitro antifungal activity against Candida albicans
[7] = tested on: Nakaseomyces glabratus; assay: In vitro antifungal activity against Candida glabrata
[8] = tested on: Cryptococcus neoformans; assay: In vitro antifungal activity against Cryptococcus neoformans
[9] = tested on: Candida albicans; assay: In vitro antifungal activity against Candida albicans after 24 hr. incubation
[10] = Aspergillus fumigatus, read-out: MIC
[11] = Aspergillus fumigatus, 24 h, read-out: MFC

Structure (SMILES) | MIC [1, 10] [µg/mL] | MFC [2, 11] [µg/mL] | No. of cures [3] | No. of survivors [4] | other results
CC(c1ncnc(Cl)c1F)C(O)(Cn1cncn1)c1ccc(F)cc1F (stereo not given) | 3.1 (≈ 8.08 µM) | 3.1 (≈ 8.08 µM) | – | – | –
CC(c1ccncn1)C(O)(Cn1cncn1)c1ccc(F)cc1F (stereo not given) | 0.39 (≈ 1.18 µM) | 0.39 (≈ 1.18 µM) | 0 | 3 | –
C[C@@H](c1ccncc1)[C@](O)(Cn1cncn1)c1ccc(F)cc1F | 0.05 (≈ 0.151 µM) | 0.09 (≈ 0.272 µM) | 0 | 4 | –
CC(c1cccnc1)C(O)(Cn1cncn1)c1ccc(F)cc1F (stereo not given) | 0.39 (≈ 1.18 µM) | – | – | – | –
OC(Cc1ccccn1)(Cn1cncn1)c1ccc(F)cc1F (stereo not given) | 25 (≈ 79 µM) | – | – | – | –
CC(c1ccncc1F)C(O)(Cn1cncn1)c1ccc(F)cc1F (stereo not given) | 0.098 (≈ 0.281 µM) | 0.19 (≈ 0.545 µM) | 5 | 5 | –
CC(c1ncncc1F)C(O)(Cn1cncn1)c1ccc(F)cc1F (stereo not given) | 0.39 (≈ 1.12 µM) | 0.78 (≈ 2.23 µM) | 4 | 5 | –
CC(c1ncncc1Cl)C(O)(Cn1cncn1)c1ccc(F)cc1F (stereo not given) | 0.39 (≈ 1.07 µM) | 1.56 (≈ 4.26 µM) | – | – | –
CC(n1cncn1)C(O)(Cn1cncn1)c1ccc(F)cc1F (stereo not given) | 12.5 (≈ 39 µM) | 25 (≈ 78.1 µM) | – | – | –
OC(Cc1ccncc1)(Cn1cncn1)c1ccc(F)cc1F (stereo not given) | 3.1 (≈ 9.8 µM) | – | – | – | –
CC(c1ncnc(Cl)c1Cl)C(O)(Cn1cncn1)c1ccc(F)cc1F (stereo not given) | 3.1 (≈ 7.75 µM) | 12.5 (≈ 31.2 µM) | – | – | –
CC(c1ccccn1)C(O)(Cn1cncn1)c1ccc(F)cc1F (stereo in doubt; 23a) | – | – | – | – | MIC [1]: 12.5 µg/mL (≈ 37.8 µM); MFC [2]: 100 µg/mL (≈ 303 µM)
CC(c1ccccn1)C(O)(Cn1cncn1)c1ccc(F)cc1F (stereo in doubt; 23b) | – | – | – | – | MIC [1]: 0.39 µg/mL (≈ 1.18 µM); MFC [2]: 1.56 µg/mL (≈ 4.72 µM)
OC(Cn1cncn1)(Cn1cncn1)c1ccc(F)cc1F [FLUCONAZOLE] | > 50 | > 50 | – | – | MIC [5]: > 25 µg/mL; MIC [6]: 1 µg/mL (≈ 3.27 µM); MIC [7]: 1.9 µg/mL (≈ 6.2 µM); MIC [8]: 9.6 µg/mL (≈ 31.3 µM)
CCC(C)n1ncn(-c2ccc(N3CCN(c4ccc(OCC5COC(Cn6cncn6)(c6ccc(Cl)cc6Cl)O5)cc4)CC3)cc2)c1=O (stereo not given) [ITRACONAZOLE] | – | – | 3 | 4 | MIC [1]: 0.14 µg/mL and 0.39 µg/mL; MIC [5]: 0.05 µg/mL (≈ 0.0709 µM); MIC [6]: 0.12 µg/mL (≈ 0.17 µM); MIC [7]: 0.19 µg/mL (≈ 0.269 µM); MIC [8]: 0.39 µg/mL (≈ 0.553 µM); MIC [2]: 0.19 µg/mL (≈ 0.269 µM)
C[C@@H](c1ncncc1F)[C@](O)(Cn1cncn1)c1ccc(F)cc1F [VORICONAZOLE] | 0.09 (≈ 0.258 µM) | – | – | – | MIC [5]: 0.24 µg/mL (≈ 0.687 µM); MIC [9]: 0.03 µg/mL (≈ 0.0859 µM); MIC [7]: 0.19 µg/mL (≈ 0.544 µM); MIC [8]: 0.39 µg/mL (≈ 1.12 µM)
